Assay results: ChEMBL document CHEMBL5726187, “Pyrimido-pyridazinone compounds and methods of use thereof” (2019)

Legend:
[1] = target: Tyrosine-protein kinase SYK (Homo sapiens, UniProt P43405); assay: Inhibition of Enzymatic Syk Kinase Activity: 2.5 μL of 10% DMSO or compound in 10% DMSO was added to the wells in a 96 well V-bottom plate. Optimized concentration of in-house Syk enzyme (different batches of Syk (356-635) kinase domain) were used at optimized concentrations) ranging from 0.035 ng to 7.5 ng/reaction diluted in assay buffer was added to a total volume of 12.5 μL). Compound and protein were incubated for 30 minutes at room temperature on a plate shaker. Ten μL of a substrate mix containing 100 μM ATP (0.25 μL), γ-P32-ATP (0.1 μL; 10 μCi/μL), pG4T (0.25 μL; 10 mg/mL) and 1× assay buffer (9.4 μL) was added to all the wells. Samples were incubated at 30° C. for 10 minutes after mixing. The reaction was stopped by the addition of 8N HCl (13 μL) containing 100 mM ATP. Thirty μL of sample was transferred to the center of a 2×2 cm2 Whatman P81 chromatography paper. After allowing the sample to dry for one minute, the assay squares were washed 3 times for 5 minutes each in ortho-phosphoric acid (0.5%) and once in acetone. Assay squares were dried for 15 minutes in a 30° C. oven and transferred to 96 well optiplate. Microscint-O reagent (100 μL, Perkin Elmer) was added to each well, the plate was sealed with Topseal-A microplates and incubated for 10 minutes at room temperature at very low speed on rocker and the plate was read in the Topcount NXL instrument.
[2] = target: Tyrosine-protein kinase JAK2 (Homo sapiens, UniProt O60674); assay: Inhibition of Enzymatic JAK2 Kinase Activity: Two μL of 10% DMSO in blank, substrate control and positive control wells and 2 μL of test compound in test wells was added. Thirteen μL of assay buffer in blank and substrate control wells and 13 μL of Enzyme buffer mix in positive and test wells was added. The reaction mixture was incubated for 30 minutes at RT on a plate shaker. Ultra Light-pGT substrate (5 μL) [poly Glu-Tyr (4:1) labeled with U Light TM dye, a tyrosine kinase substrate] and ATP mix was added to all wells. The reaction plate was incubated for 60 minutes at RT on a plate shaker. The reaction was stopped by adding 40 mM EDTA (10 μL) in buffer. Ten μL of antibody was added to all the wells.
Sequence of Tyrosine-protein kinase JAK2 (O60674 whole entry): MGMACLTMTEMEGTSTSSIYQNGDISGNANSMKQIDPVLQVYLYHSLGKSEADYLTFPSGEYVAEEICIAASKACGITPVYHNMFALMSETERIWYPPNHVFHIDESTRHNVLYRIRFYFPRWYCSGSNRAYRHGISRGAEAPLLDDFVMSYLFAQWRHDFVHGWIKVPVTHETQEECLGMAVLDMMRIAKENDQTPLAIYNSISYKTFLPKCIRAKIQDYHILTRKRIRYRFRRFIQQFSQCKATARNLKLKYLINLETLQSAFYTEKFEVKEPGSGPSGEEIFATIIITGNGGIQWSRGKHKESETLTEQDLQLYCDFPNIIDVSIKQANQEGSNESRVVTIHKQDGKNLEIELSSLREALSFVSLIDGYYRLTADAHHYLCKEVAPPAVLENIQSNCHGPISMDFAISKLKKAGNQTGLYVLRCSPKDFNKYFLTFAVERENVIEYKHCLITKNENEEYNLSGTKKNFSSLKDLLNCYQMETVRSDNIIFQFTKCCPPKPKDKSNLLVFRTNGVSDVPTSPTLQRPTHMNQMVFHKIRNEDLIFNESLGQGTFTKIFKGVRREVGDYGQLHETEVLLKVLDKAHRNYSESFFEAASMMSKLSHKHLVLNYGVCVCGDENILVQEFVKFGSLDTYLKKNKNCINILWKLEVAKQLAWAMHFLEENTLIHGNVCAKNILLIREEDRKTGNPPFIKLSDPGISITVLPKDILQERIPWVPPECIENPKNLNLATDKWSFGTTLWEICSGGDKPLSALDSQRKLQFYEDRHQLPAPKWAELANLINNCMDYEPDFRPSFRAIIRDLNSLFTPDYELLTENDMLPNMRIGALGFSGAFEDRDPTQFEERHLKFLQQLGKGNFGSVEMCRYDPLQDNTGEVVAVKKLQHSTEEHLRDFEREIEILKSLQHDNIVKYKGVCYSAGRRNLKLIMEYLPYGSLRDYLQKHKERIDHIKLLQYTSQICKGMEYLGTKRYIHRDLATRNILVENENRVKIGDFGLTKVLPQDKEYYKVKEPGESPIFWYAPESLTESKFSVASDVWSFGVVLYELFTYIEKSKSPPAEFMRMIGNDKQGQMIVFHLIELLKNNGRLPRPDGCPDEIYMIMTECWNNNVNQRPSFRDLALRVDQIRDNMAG

Compound | IC50 [1] | IC50 [2]
CC1CC(C)CN(c2nc(Nc3ccc(N4CCC(CC(=O)O)CC4)cc3)c3c(=O)[nH]ncc3n2)C1 (stereo unspecified) | < 50 nM | < 10 nM
CC(C)(O)C(=O)N1CCN(c2ccc(Nc3nc(N4CCC(CC#N)CC4)nc4cn[nH]c(=O)c34)cn2)CC1 | < 50 nM | < 50 nM
CC(C)(C(N)=O)N1CCN(c2ccc(Nc3nc(N4CCCCCC4)nc4cn[nH]c(=O)c34)cc2)CC1 | < 50 nM | < 10 nM
O=C(O)C1CC12CCC(c1ccc(Nc3nc(NC4CCCCC4)nc4cn[nH]c(=O)c34)cc1)CC2 (stereo unspecified) | < 50 nM | < 50 nM
COc1ccc(-c2nc(Nc3ccc(N4CCC5(CC4)CC5C(=O)O)cc3)c3c(=O)[nH]ncc3n2)cc1 (stereo unspecified) | < 100 nM | < 100 nM
N#CCC1CCN(c2nc(Nc3ccc(N4CCCC(O)C4)nc3)c3c(=O)[nH]ncc3n2)CC1 (stereo unspecified) | < 50 nM | < 50 nM
N#CCC1CCN(c2nc(Nc3ccc(F)cc3)c3c(=O)[nH]ncc3n2)CC1 | > 100 nM | –
O=C1CC2(CCN(c3nc(Nc4ccc(CN5CCNCC5)cc4)c4c(=O)[nH]ncc4n3)CC2)CC(=O)N1 | > 100 nM | –
CN(c1nc(Nc2ccc(N3CCC4(CC3)CC4C(=O)O)cc2)c2c(=O)[nH]ncc2n1)C1CCCCC1 (stereo unspecified) | < 50 nM | < 10 nM
CC(C)(C#N)N1CCN(CCOc2ccc(Nc3nc(N4CCCCCC4)nc4cn[nH]c(=O)c34)cc2)CC1 | < 50 nM | < 50 nM
CC(C)(Oc1ccc(Nc2nc(N3CCCCCC3)nc3cn[nH]c(=O)c23)cc1)C(=O)O | < 50 nM | < 10 nM
O=c1[nH]ncc2nc(N3CCCCC3)nc(Nc3ccc(OCCN4CCCNCC4)cc3)c12 | < 50 nM | < 50 nM

Now from value to compound:

IC50 [1] | IC50 [2] | Compound
< 50 nM | < 10 nM | O=c1[nH]ncc2nc(N3CCCCCC3)nc(Nc3ccc(OCCN4CCCNCC4)cc3)c12
> 100 nM | – | COc1cc(Nc2nc(N3CCCCCC3)nc3cn[nH]c(=O)c23)cc(OC)c1
< 50 nM | < 50 nM | O=C(O)C1CC12CCC(c1ccc(Nc3nc(N4CCCCC4)nc4cn[nH]c(=O)c34)cc1)CC2 (stereo unspecified)
< 100 nM | < 50 nM | O=C(O)C1CC12CCN(c1ccc(Nc3nc(-c4ccc(F)cc4)nc4cn[nH]c(=O)c34)cc1)CC2 (stereo unspecified)
< 50 nM | < 50 nM | CC(C)(CO)Oc1ccc(Nc2nc(N3CCC(CC#N)CC3)nc3cn[nH]c(=O)c23)cc1
< 50 nM | < 10 nM | N#CCC1CCN(c2nc(Nc3ccc(N4CCC(F)(F)CC4)cc3)c3c(=O)[nH]ncc3n2)CC1
< 50 nM | – | O=c1[nH]ncc2nc(N3CCCCCC3)nc(Nc3ccc(OCCN4CCNCC4)cc3)c12
< 10 nM | < 10 nM | O=C(O)CN1CCN(c2ccc(Nc3nc(N4CCCCCC4)nc4cn[nH]c(=O)c34)cc2)CC1
